# Test results: ChEMBL document CHEMBL4680227, “Design and synthesis of selective degraders of EGFR mutant” (Eur J Med Chem, 2020)
# Activity calls are given as the source filed them. The calls are words filed in the database; no cut-off is given here.
# Key:
# [1] = biological target: E3 ubiquitin-protein ligase Mdm2/Epidermal growth factor receptor (Homo sapiens, UniProt Q00987+P00533); experiment: Protac activity at MDM2/EGFR in human A431 cells assessed as EGFR degradation by Western blot analysis; assay type: cell-based; conditions: a-431
# [2] = biological target: E3 ubiquitin-protein ligase Mdm2/Epidermal growth factor receptor (Homo sapiens, UniProt Q00987+P00533, T790M/L858M); experiment: Protac activity at MDM2/EGFR L858R/T790M mutant in human NCI-H1975 cells assessed as EGFR degradation by Western blot analysis; assay type: cell-based
# [3] = biological target: Baculoviral IAP repeat-containing protein 2/Epidermal growth factor receptor (Homo sapiens, UniProt P00533+Q13490); experiment: Protac activity at cIAP1/EGFR in human A431 cells assessed as EGFR degradation by Western blot analysis; assay type: cell-based; conditions: a-431
# [4] = system: von Hippel-Lindau disease tumor suppressor/Epidermal growth factor receptor (Homo sapiens), P00533+P40337 [L858R,T790M]; experiment: (§1) Protac activity at VHL/EGFR L858R/T790M mutant in human NCI-H1975 cells assessed as EGFR degradation by Western blot analysis; assay type: cell-based
# [5] = biological target: T1, von Hippel-Lindau disease tumor suppressor/Epidermal growth factor receptor (Homo sapiens, UniProt P00533+P40337); experiment: Protac activity at VHL/EGFR in human A431 cells assessed as EGFR degradation by Western blot analysis; assay type: cell-based; conditions: a-431
# [6] = biological target: von Hippel-Lindau disease tumor suppressor/Epidermal growth factor receptor (Homo sapiens, UniProt P00533+P40337, T790M/L858R); experiment: as §1; assay type: cell-based
# [7] = system: NCI-H1975; experiment: Antiproliferative activity against human NCI-H1975 cells measured after 72 hrs by CCK8 assay; assay type: functional, cell-based; conditions: NCI-H1975, 72 h
# [8] = system: von Hippel-Lindau disease tumor suppressor/Epidermal growth factor receptor (Homo sapiens), P00533+P40337 [L858R,T790M]; experiment: Protac activity at VHL/EGFR L858R/T790M mutant in human NCI-H1975 cells assessed as induction of EGFR degradation at 200 nM measured after 12 hrs by Western blot analysis relative to control; assay type: cell-based
# [9] = system: von Hippel-Lindau disease tumor suppressor/Epidermal growth factor receptor (Homo sapiens), P00533+P40337 [L858R,T790M]; experiment: Protac activity at VHL/EGFR L858R/T790M mutant in human NCI-H1975 cells assessed as EGFR degradation at >2000 nM measured after 16 hrs by Western blot analysis; assay type: cell-based; conditions: dose nM >2000, time 16.0 hrs
# [10] = system: von Hippel-Lindau disease tumor suppressor/Epidermal growth factor receptor (Homo sapiens), P00533+P40337 [L858R,T790M]; experiment: Protac activity at VHL/EGFR L858R/T790M mutant in human NCI-H1975 cells assessed as reduction in EGFR autophosphorylation measured after 16 hrs by Western blot analysis; assay type: cell-based
# [11] = biological target: T1, von Hippel-Lindau disease tumor suppressor/Epidermal growth factor receptor; experiment: Protac activity at VHL/EGFR in human A431 cells assessed as reduction in ERK phosphorylation up to 10000 nM measured after 16 hrs by Western blot analysis; assay type: cell-based; conditions: A-431, dose nM <=10000, time 16.0 hrs
# [12] = system: von Hippel-Lindau disease tumor suppressor/Epidermal growth factor receptor (Homo sapiens), P00533+P40337 [L858R,T790M]; experiment: Protac activity at VHL/EGFR L858R/T790M mutant in human NCI-H1975 cells assessed as reduction in AKT phosphorylation measured after 16 hrs by Western blot analysis; assay type: cell-based
# [13] = system: von Hippel-Lindau disease tumor suppressor/Epidermal growth factor receptor (Homo sapiens), P00533+P40337 [L858R,T790M]; experiment: Protac activity at VHL/EGFR L858R/T790M mutant in human NCI-H1975 cells assessed as induction of EGFR degradation at 100 nM in presence of EGFR L858R/T790M mutant ligand XTF-262 by Western blot analysis; assay type: cell-based
# [14] = biological target: T1, von Hippel-Lindau disease tumor suppressor/Epidermal growth factor receptor; experiment: Protac activity at VHL/EGFR in human A431 cells assessed as reduction in AKT phosphorylation up to 10000 nM measured after 16 hrs by Western blot analysis; assay type: cell-based; conditions: A-431, dose nM <=10000, time 16.0 hrs
# [15] = system: von Hippel-Lindau disease tumor suppressor/Epidermal growth factor receptor (Homo sapiens), P00533+P40337 [L858R,T790M]; experiment: Protac activity at VHL/EGFR L858R/T790M mutant in human NCI-H1975 cells assessed as reduction in AKT phosphorylation at >2000 nM measured after 16 hrs by Western blot analysis; assay type: cell-based; conditions: dose nM >2000, time 16.0 hrs
# [16] = system: von Hippel-Lindau disease tumor suppressor/Epidermal growth factor receptor (Homo sapiens), P00533+P40337 [L858R,T790M]; experiment: Protac activity at VHL/EGFR L858R/T790M mutant in human NCI-H1975 cells assessed as reduction in ERK phosphorylation measured after 16 hrs by Western blot analysis; assay type: cell-based
# [17] = system: von Hippel-Lindau disease tumor suppressor/Epidermal growth factor receptor (Homo sapiens), P00533+P40337 [L858R,T790M]; experiment: Protac activity at VHL/EGFR L858R/T790M mutant in human NCI-H1975 cells assessed as induction of EGFR degradation at 100 nM in presence of VHL ligand (S,R,S)-AHPC osimertinib by Western blot analysis; assay type: cell-based
# [18] = system: von Hippel-Lindau disease tumor suppressor/Epidermal growth factor receptor (Homo sapiens), P00533+P40337 [L858R,T790M]; experiment: Protac activity at VHL/EGFR L858R/T790M mutant in human NCI-H1975 cells assessed as induction of EGFR degradation at 200 nM measured after 24 hrs by Western blot analysis; assay type: cell-based
# [19] = biological target: T1, von Hippel-Lindau disease tumor suppressor/Epidermal growth factor receptor; experiment: Protac activity at VHL/EGFR in human A431 cells assessed as EGFR degradation up to 10000 nM measured after 16 hrs by Western blot analysis; assay type: cell-based; conditions: A-431, dose nM <=10000, time 16.0 hrs
# [20] = system: von Hippel-Lindau disease tumor suppressor/Epidermal growth factor receptor (Homo sapiens), P00533+P40337 [L858R,T790M]; experiment: Protac activity at VHL/EGFR L858R/T790M mutant in human NCI-H1975 cells assessed as reduction in ERK phosphorylation at >2000 nM measured after 16 hrs by Western blot analysis; assay type: cell-based; conditions: dose nM >2000, time 16.0 hrs
# [21] = system: von Hippel-Lindau disease tumor suppressor/Epidermal growth factor receptor (Homo sapiens), P00533+P40337 [L858R,T790M]; experiment: Protac activity at VHL/EGFR L858R/T790M mutant in human NCI-H1975 cells assessed as induction of EGFR degradation at 10 to 100 nM measured after 12 hrs in presence of proteasome inhibitor MG132 by Western blot analysis; assay type: cell-based; conditions: dose 10-100 nM
# [22] = biological target: Epidermal growth factor receptor (Homo sapiens, UniProt P00533); experiment: Inhibition of wild-type EGFR (unknown origin) using Poly (Glu, Tyr) 4:1 as substrate measured after 1 hr by ELISA
# [23] = system: von Hippel-Lindau disease tumor suppressor/Epidermal growth factor receptor (Homo sapiens), P00533+P40337 [L858R,T790M]; experiment: Protac activity at VHL/EGFR L858R/T790M mutant in human NCI-H1975 cells assessed as induction of EGFR degradation at 10 to 100 nM measured after 1 hr in presence of protein synthesis inhibitor cycloheximide by Western blot analysis; assay type: cell-based; conditions: dose 10-100 nM
# [24] = biological target: Epidermal growth factor receptor (Homo sapiens, UniProt P00533, L858R/T790M); experiment: Inhibition of EGFR L858R/T790M (unknown origin) using Poly (Glu, Tyr) 4:1 as substrate measured after 1 hr by ELISA
# [25] = system: von Hippel-Lindau disease tumor suppressor/Epidermal growth factor receptor (Homo sapiens), P00533+P40337 [L858R,T790M]; experiment: Protac activity at VHL/EGFR L858R/T790M mutant in human NCI-H1975 cells assessed as induction of EGFR degradation at 200 nM measured after 6 hrs by Western blot analysis relative to control; assay type: cell-based
# [26] = Effect on AKT level in human NCI-H1975 cells up to 10000 nM treated 8 hrs post serum starvation measured after 16 hrs by Western blot analysis; assay type: ADME, cell-based; conditions: nci-h1975, 16 h
# [27] = system: von Hippel-Lindau disease tumor suppressor/Epidermal growth factor receptor (Homo sapiens), P00533+P40337 [L858R,T790M]; experiment: Protac activity at VHL/EGFR L858R/T790M mutant in human NCI-H1975 cells assessed as EGFR degradation measured after 16 hrs by Western blot analysis; assay type: cell-based
# [28] = Effect on ERK level in human NCI-H1975 cells up to 10000 nM treated 8 hrs post serum starvation measured after 16 hrs by Western blot analysis; assay type: ADME, cell-based; conditions: nci-h1975, 16 h
# [29] = system: von Hippel-Lindau disease tumor suppressor/Epidermal growth factor receptor (Homo sapiens), P00533+P40337 [L858R,T790M]; experiment: Protac activity at VHL/EGFR L858R/T790M mutant in human NCI-H1975 cells assessed as induction of EGFR degradation at 100 nM in presence of EGFR L858R/T790M mutant ligand osimertinib by Western blot analysis; assay type: cell-based
smiles,measurement,setting,value
C=CC(=O)Nc1cccc(-n2c(=O)cc(C)c3cnc(Nc4ccc(N5CCN(C(=O)CCCCCCCNC(=O)c6ccc(NC(=O)[C@@H]7N[C@@H](CC(C)(C)C)[C@](C#N)(c8ccc(Cl)cc8F)[C@H]7c7cccc(Cl)c7F)c(OC)c6)CC5)cc4OC)nc32)c1,DC50,[1],> 2000 nM
same,DC50,[2],253 nM
C=CC(=O)Nc1cccc(-n2c(=O)cc(C)c3cnc(Nc4ccc(N5CCN(C(=O)CCCCCCCCCCCNC(=O)[C@H](CC(C)C)NC(=O)[C@@H](O)[C@H](N)Cc6ccccc6)CC5)cc4OC)nc32)c1,DC50,[3],> 2000 nM
C=CC(=O)Nc1cccc(-n2c(=O)cc(C)c3cnc(Nc4ccc(N5CCN(C(=O)CCCCCCCCCCC(=O)N[C@H](C(=O)N6C[C@H](O)C[C@H]6C(=O)NCc6ccc(-c7scnc7C)cc6)C(C)(C)C)CC5)cc4OC)nc32)c1,Activity,[4],Dose-dependent effect
same,DC50,[5],> 2000 nM
C=CC(=O)Nc1cccc(-n2c(=O)cc(C)c3cnc(Nc4ccc(N5CCN(C(=O)CCCCCNC(=O)c6ccc(NC(=O)[C@@H]7N[C@@H](CC(C)(C)C)[C@](C#N)(c8ccc(Cl)cc8F)[C@H]7c7cccc(Cl)c7F)c(OC)c6)CC5)cc4OC)nc32)c1,DC50,[1],> 2000 nM
same,DC50,[2],77 nM
C=CC(=O)Nc1cccc(-n2c(=O)cc(C)c3cnc(Nc4ccc(N5CCN(CCCCCCCCCCCC(=O)N[C@H](C(=O)N6C[C@H](O)C[C@H]6C(=O)NCc6ccc(-c7scnc7C)cc6)C(C)(C)C)CC5)cc4OC)nc32)c1,DC50,[6],> 2000 nM
same,DC50,[5],50.3 nM
C=CC(=O)Nc1cccc(-n2c(=O)cc(C)c3cnc(Nc4ccc(N5CCN(CCCCCCCCCCCCNC(=O)c6ccc(NC(=O)[C@@H]7N[C@@H](CC(C)(C)C)[C@](C#N)(c8ccc(Cl)cc8F)[C@H]7c7cccc(Cl)c7F)c(OC)c6)CC5)cc4OC)nc32)c1,DC50,[1],> 2000 nM
C=CC(=O)Nc1cccc(-n2c(=O)cc(C)c3cnc(Nc4ccc(N5CCN(CCCCCC(=O)N[C@H](C(=O)N6C[C@H](O)C[C@H]6C(=O)NCc6ccc(-c7scnc7C)cc6)C(C)(C)C)CC5)cc4OC)nc32)c1,IC50,[7],506 nM
same,Activity,[8],89%
same,DC50,[6],5.9 nM
same,Activity,[9],Active
same,Activity,[10],Dose-dependent effect
same,Activity,[11],inactive
same,Activity,[12],Dose-dependent effect
same,Activity,[13],inactive
same,Activity,[14],inactive
same,Activity,[15],inactive
same,Activity,[16],Dose-dependent effect
same,Activity,[17],inactive
same,Activity,[18],inactive
same,Activity,[19],inactive
same,Activity,[20],inactive
same,Activity,[21],inactive
same,IC50,[22],> 1000 nM
same,Activity,[23],Active
same,IC50,[24],19.3 nM
same,Activity,[25],63%
same,DC50,[5],> 2000 nM
same,Activity,[26],Non-Toxic
same,Activity,[27],Dose-dependent effect
same,Activity,[28],Non-Toxic
same,Activity,[29],inactive
C=CC(=O)Nc1cccc(-n2c(=O)cc(C)c3cnc(Nc4ccc(N5CCN(C(=O)CCCCCCC(=O)N[C@H](C(=O)N6C[C@H](O)C[C@H]6C(=O)NCc6ccc(-c7scnc7C)cc6)C(C)(C)C)CC5)cc4OC)nc32)c1,DC50,[6],235 nM
same,DC50,[5],> 2000 nM
